Patent US8829033B2, “N-benzylamide substituted derivatives of 2-(acylamido)acetic acid and 2-(acylamido)propionic acids: potent neurological agents” (The University of North Carolina at Chapel Hill, priority 2009, dated 2014)
Read-outs that look alike come from different tables or passages of the source.

Key:
Mice [1] = test: Maximal electroshock seizure (MES) test, mice (ip);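 also: male albino CF No. 1 mice dosed ip, MES stimulus 50 mA at 60 Hz lasting 0.2 s, efficacy endpoint is loss of hind leg tonic extension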
Protocol: (§2) The maximal electroconvulsive shock (MES) test is regarded as a standard screen for anticonvulsant activity in terms of inhibition of seizure spread in generalized tonic-clonic seizures.
(§3) Groups of at least 8 male albino CF No. 1 mice or male albino Sprague-Dawley rats are treated with 10 mL/kg i.p. or 4 mL/kg p.o. of the test compound solution, respectively. The electrical stimulus in the MES test is 50 mA at 60 Hz for mice and 150 mA at 60 Hz for rats, both delivered for 0.2 sec. Abolition of the hind leg tonic extensor component of the seizure is used as the endpoint.

[2] = Neurological toxicity, rotorod test, mice (ip); type: in vivo; details: male, CF No 1, mouse, in vivo
Protocol: (§1) Tests are conducted in groups of at least 8 mice or rats to determine the intrinsic neurotoxicity (neuromuscular impairment) after administration of the test compound by the route of administration to be used in the pharmacology studies. Neurotoxicity is determined in male CF No 1 mice by the rotarod procedure. Inability of the mouse to maintain its equilibrium in 3 trials during 1 min on this rotating rod (6 rpm) is used as an indication of such impairment. In Sprague-Dawley rats, minimal motor impairment (MMI) is determined by overt evidence of ataxia, abnormal gait, and stance.

Rat [3] = test: Behavioral toxicity, rat (po); type: in vivo; details: Table b500, orally, behavioral toxicity
Protocol: as §1

Rat [4] = test: Maximal electroshock seizure (MES) test, rat (po); type: in vivo
Protocol: as §2, §3

Mice [5] = test: Formalin test (mice, ip); type: in vivo; details: mice, ip
Protocol: Compounds of the present invention were active in treating pain in a formalin test carried out in accordance with standard techniques, as described in S. Hunskaar et al., J. Neurosci. Methods 14: 69-76 (1985). Briefly, 0.5% formalin is injected into the mouse hind paw to elicit a bi-phasic licking response, where the first acute phase is thought to correspond to the direct stimulation of peripheral fibers and the second (inflammatory) phase is caused by the release of inflammatory mediators.
Spinal/supraspinal plasticity of nociception is considered as a molecular basis for neuropathic pain particularly during the second (late) phase of the test (Dubuisson & Dennis, 1977; Coderre et al., 1990; Coderre & Melzack, 1992), during which most clinically used drugs against neuropathic pain are active.

[6] = rotorod test, read-out: Mice (ip) Tox, TD50
[7] = rotorod test, read-out: Mice (ip) Tox, Td50
[8] = Table b502, protective index (TD50/ED50)

In the case of `CC(=O)NC(C(=O)NCc1ccccc1)c1ccccc1` (stereo not shown) [C, reference compound], the “MES ED50” value (Mice [1]; ip) was 32 mg/kg.

In the case of `CC(=O)NC(C(=O)NCc1ccc(OCc2cccc(F)c2)cc1)c1ccccn1` (racemic) [(R, S)-9, N-4-(3-Fluorobenzyloxy)benzyl 2-Acetamido-2-(pyridin-2-yl)acetamide], the TD50 [2, 6] was 210 mg/kg, the “Rat (po) Tox, TD50” value (Rat [3]) was >30 [4] mg/kg and the melting point was 154 to 155 °C.

In the case of `CC(=O)NCC(=O)NCc1ccc(OCc2cccc(F)c2)cc1` [compound 5, N-4-(3-Fluorobenzyloxy)benzyl 2-Acetamidoacetamide], the “Rat (po) Tox, TD50” value (Rat [3]) was >500 [1.0] mg/kg and the “Rat (po) PI” value (Rat [4]; Table b500, protective index (TD50/ED50)) was greater than 16.

With `COCc1ccc(CNC(=O)[C@@H](COC)NC(C)=O)cc1` the melting point was 119 to 120 °C.

With `COCCCc1ccc(CNC(=O)[C@@H](COC)NC(C)=O)cc1` the melting point was 105 to 107 °C.

In the case of `COC[C@@H](NC(C)=O)C(=O)NCc1ccccc1` [H, reference compound], the “Formalin Assay Acute (%)” value (Mice [5]; dose 16 (mg)) was 100% and the “Formalin Assay Inflam. (%)” value (Mice [5]; dose 16 (mg)) was 44%.

With `CC(=O)NC(C(=O)NCc1ccc(C)cc1)c1ccccc1` (stereo not shown) [D, reference compound] the “MES ED50” value (Mice [1]; ip) was roughly 300 mg/kg.

For `CC(=O)N[C@@H](C(=O)NCc1ccc(OCc2cccc(F)c2)cc1)C(C)(C)C`, the melting point was 64 to 66 °C.

With `COC[C@@H](NC(C)=O)C(=O)NCc1ccc(NCc2cccc(F)c2)cc1` [(R)-17, (R)—N-4-(3-Fluorobenzylamino)benzyl 2-Acetamido-3-methoxypropionamide] the TD50 [2, 7] was 30 to 100 mg/kg, the “Mice (ip) MES, ED50” value (Mice [1]; Table b501, intraperitoneally) was >10, <30 [0.5] mg/kg and the melting point was 78 to 81 °C.

With `COC[C@@H](NC(C)=O)C(=O)NCc1ccc(OCCc2cccc(F)c2)cc1` [(R)-19, (R)—N-4′-((3″-Fluoro)phenethoxy)benzyl 2-N-Acetamido-3-methoxypropionamide] the TD50 [2, 7] was 30 to 100 mg/kg, the “Mice (ip) MES, ED50” value (Mice [1]; Table b501, intraperitoneally) was >30, <100 [0.5, 4.0] mg/kg and the melting point was 147 to 148 °C.

In the case of `COC[C@@H](NC(C)=O)C(=O)NCc1ccc(C#Cc2cccc(F)c2)cc1` [(R)-15, (R)—N-4-((3-Fluorophenyl)ethynyl)benzyl 2-Acetamido-3-methoxypropionamide], the TD50 [2, 7] was 100 to 300 mg/kg, the ED50 (Rat [4]; orally, read-out: Rat (po) MES, ED50) was 1.4 mg/kg and the “Mice (ip) MES, ED50” value (Mice [1]; Table b501, intraperitoneally) was >30, <100 [1.0, 4.0] mg/kg. For the same compound, the melting point was 200 to 202 °C.

With `COC[C@@H](NC(C)=O)C(=O)NCc1ccc([N+](=O)[O-])cc1` [F, reference compound] the “MES ED50” value (Mice [1]; ip) was >100, <300 mg/kg.

For `COC[C@H](NC(C)=O)C(=O)NCc1ccc(OCc2cccc(F)c2)cc1` [(S)-3, (S)-2-Acetamido-N-(4-(3-fluorobenzyloxy)benzyl)-3-methoxypropanamide], the “Mice (ip) MES, ED50” value (Mice [1]; ip) was >300 [0.5].

For `COC[C@@H](NC(C)=O)C(=O)NCc1ccc(N=[N+]=[N-])cc1` [(R)-5, (R)—N-(4-Azidobenzyl)-2-acetamido-3-methoxypropanamide], the “Rat (po) PI” value (Rat [4]; PI=TD50/ED50) was greater than 64, the “Formalin Assay Acute (%)” value (Mice [5]; dose 8.0 (mg)) was 59% and the “Formalin Assay Inflam. (%)” value (Mice [5]; dose 8.0 (mg)) was 106%. The “Mice (ip) PI” value (Mice [1]; ip, PI=TD50/ED50) was 5.5 and the melting point was 149 to 150 °C.

`CC(=O)N[C@H](C)C(=O)NCc1ccc(OCc2cccc(F)c2)cc1` showed a melting point of 158 °C.

In the case of `COC[C@@H](NC(C)=O)C(=O)NCc1ccc(OCc2ccccc2F)cc1` [(R)-21, (R)—N-4-(2-Fluorobenzyloxy)benzyl 2-Acetamido-3-methoxypropionamide], the TD50 [2, 6] was 37 mg/kg, the “Rat (po) PI” value (Rat [4]; [8]) was greater than 45 and the “Mice (ip) MES, ED50” value (Mice [1]; Table b502, intraperitoneally) was 6.7 [0.25] (4.8-9.1) mg/kg. It also gave a melting point of 173 to 174 °C.

For `COC[C@H](NC(C)=O)C(=O)NCc1ccc(N=[N+]=[N-])cc1` [(S)-5, (S)—N-(4-Azidobenzyl)-2-acetamido-3-methoxypropanamide], the TD50 ([2]; read-out: Mice (ip) Tox, TD50) was greater than 300 mg/kg and the melting point was 149 to 150 °C.

For `COC[C@@H](NC(C)=O)C(=O)NCc1ccc(OCc2ccc(F)cc2)cc1` [(R)-22, (R)—N-4-(4-Fluorobenzyloxy)benzyl 2-Acetamido-3-methoxypropionamide], the TD50 [2, 6] was 30 to 100 mg/kg, the “Rat (po) PI” value (Rat [4]; [8]) was greater than 86 and the “Mice (ip) MES, ED50” value (Mice [1]; Table b502, intraperitoneally) was >10, <30 [0.5] mg/kg. For the same compound, the melting point was 166 to 167 °C.
